Measured values: PubChem BioAssay (NCI)
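Grown in 96-well plates, cells were treated for 48 hours with each compound at five concentrations. Insufficient inhibition: endpoint recorded as highest concentration tested. GI50 is the concentration that inhibits growth by half. TGI: total growth inhibition.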

Columns and labels:
Test in all cases: NCI tumour cell line growth inhibition, 48 h
ACHN renal = test system: ACHN renal
CCRF-CEM leukemia = test system: CCRF-CEM leukemia
KM12 colon = test system: KM12 colon
MCF7 breast = test system: MCF7 breast
MDA-MB-435 = test system: MDA-MB-435
PC-3 prostate = test system: PC-3 prostate
SF-268 CNS = test system: SF-268 CNS
SK-MEL-2 melanoma = test system: SK-MEL-2 melanoma
SN12C renal = test system: SN12C renal
SR leukemia = test system: SR leukemia

Compound | GI50 (ACHN renal) [µM] | TGI (ACHN renal) [µM] | GI50 (CCRF-CEM leukemia) [µM] | TGI (CCRF-CEM leukemia) [µM] | GI50 (KM12 colon) [µM] | TGI (KM12 colon) [µM] | GI50 (MCF7 breast) [µM] | TGI (MCF7 breast) [µM] | GI50 (MDA-MB-435) [µM] | TGI (MDA-MB-435) [µM] | GI50 (PC-3 prostate) [µM] | TGI (PC-3 prostate) [µM] | GI50 (SF-268 CNS) [µM] | TGI (SF-268 CNS) [µM] | GI50 (SK-MEL-2 melanoma) [µM] | TGI (SK-MEL-2 melanoma) [µM] | GI50 (SN12C renal) [µM] | TGI (SN12C renal) [µM] | GI50 (SR leukemia) [µM] | TGI (SR leukemia) [µM]
CC(=O)c1nc(-c2ccc(C[C@@H](CNC(=O)CN(C)C)NC(=O)c3ccc(OC(C)C)c(Cl)c3)cc2)cn1C | 1.01 | 20.2 | 0.0447 | 34.7 | 0.0662 | 21.1 | 0.0398 | 14.4 | 0.0297 | 14 | 0.0652 | 19.6 | 0.242 | 22.7 | 0.061 | 15.5 | 0.0579 | 17.1 | 0.0506 | 12.6
O=C(OCC1=CC(=O)c2ccccc2C1=O)c1ccccc1 | 15 | 28.4 | 6.73 | 35.4 | 11.6 | 24.7 | 13.2 | 26.8 | 1.98 | 3.66 | 14.1 | 38 | 14.1 | 29.6 | 12.3 | 35.9 | 15.1 | 28.5 | 3.51 | 30.8
O=C(NC1=C(Cl)C(=O)c2ccccc2C1=O)C(=O)c1c(O)c2ccccc2oc1=O |  | 14 |  | > 30.7 |  | 31.3 |  | 8.39 |  | 2.97 |  | > 27.1 |  | 25.6 |  | 10.3 |  | 14.3 |  | 80.6
BrCc1ccc2ccc3ccc(CBr)nc3c2n1 |  | 5.58 |  | 3.75 |  | 14.7 |  | 4.87 |  | 16.6 |  | 5.75 |  | 9.04 |  | 15 |  | 4.55 |  | 5.54
CN(Cc1cnc2nc(N)nc(N)c2n1)c1c(Cl)cc(C(=O)NC(CCC(=O)O)C(=O)O)cc1Cl (stereo not given) | < 0.01 | > 100 | < 0.01 | > 100 | < 0.0137 | > 100 | < 0.01 | > 100 | < 0.01 | > 100 | < 0.01 | > 100 | < 0.0169 | > 100 | > 100 | > 100 | < 0.01 | > 100 | < 0.01 | > 100
COC1CCC(OC)C(c2nc3sccn3c2/C=N/N=C(N)N)C1 (stereo not given) | > 100 | > 100 | 24.8 | > 64.7 | 16 | 40.2 | 20.1 | 45 | 17.2 | 36 | 25 | > 65.4 | 18.5 | 45.8 | 25.7 | > 62.4 | 22.4 | 56.3 | 0.0201 | 15
CCOc1ccc2cc(-c3nn(CC4CCN(C)CC4)c4ncnc(N)c34)ccc2c1 | 14.7 | 33 | 16.8 | 55.2 | 18 | 45.2 | 13.4 | 37.1 | 12.2 | 24.7 | 17 | 43.5 | 13.7 | 30.2 | 17 | 32.4 | 12 | 32.1 | 3.63 | 18
O=C(O)CCN1C(=S)CSC1=S |  | > 100 |  | > 100 |  | > 100 |  | > 100 |  | > 100 |  | > 100 |  | > 100 |  | > 100 |  | > 100 |  | > 100
COc1cc(C=NCC(=O)CSC(c2ccccc2)c2ccccc2)ccc1O | 12.5 | 31.8 | 8.42 | 50.9 | 11.9 | 26.3 | 21.2 | > 100 | 14.3 | 35.7 | 9.26 | 28.2 | 17.2 | 40 | 14.9 | 28.7 | 14.1 | 28.1 | 8.27 | 25.3
COc1c(OC2OC(C)C(O)C(O)C2O)c(OC)c2oc(-c3ccc(O)cc3)cc(=O)c2c1O (stereo not given) | 30.7 | > 100 | 31.4 | > 100 | 39.7 | > 100 | 34.4 | > 100 | 29.1 | 78.5 | 34.8 | > 100 | 33.1 | > 100 | 47.4 | > 100 | 27.8 | > 100 | 19.7 | 93.5
CSCc1ncc(-c2ccc(C(F)(F)F)cc2)c(NC2CCCCCC2)n1 | > 10 | > 10 | > 10 | > 10 | > 10 | > 10 | > 10 | > 10 | > 10 | > 10 | > 10 | > 10 | > 10 | > 10 | > 10 | > 10 | > 10 | > 10 | > 10 | > 10
